The record followed here is ChEMBL document CHEMBL1127558, “Synthesis and characterization of selective fluorescent ligands for the neurokinin NK2 receptor” (J Med Chem, 1994).

In the experiment the target is T1, Substance-K receptor (Homo sapiens, UniProt P21452).
T1 sequence (P21452 whole entry): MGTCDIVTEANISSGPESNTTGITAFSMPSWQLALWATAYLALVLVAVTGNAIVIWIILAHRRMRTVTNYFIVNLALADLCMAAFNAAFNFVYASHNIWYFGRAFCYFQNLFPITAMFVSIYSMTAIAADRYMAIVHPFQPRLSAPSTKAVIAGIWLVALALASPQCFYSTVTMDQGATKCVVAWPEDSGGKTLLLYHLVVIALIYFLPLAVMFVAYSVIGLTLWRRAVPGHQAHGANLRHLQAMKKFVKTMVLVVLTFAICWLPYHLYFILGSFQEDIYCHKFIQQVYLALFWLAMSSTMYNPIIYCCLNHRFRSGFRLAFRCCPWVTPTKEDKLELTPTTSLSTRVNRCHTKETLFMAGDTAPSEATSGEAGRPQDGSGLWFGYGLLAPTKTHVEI
In words: Binding affinity against human NK2 receptors expressed in CHO cells using [3H]GR-100679 as radioligand. The class given is cell-based.

Numbered stars: 1 amine (or outer) side, 2 acyl side, 3 side chain; on linkers, the order of the positions; unused ones are H or OH. Square brackets hold non-standard residues; d marks the D form. Peptide text beside a SMILES is read from it. * marks the point of attachment. X1 = C[C@@H](C(=O)[*:2])N(c1ccc([N+](=O)[O-])c2nonc12)[*:1]; Nle = CCCC[C@H](N)C(=O)O; Bz = O=C(c1ccccc1)*

In general, Ki refers to a measure of affinity in units of concentration, obtained from inhibition or displacement.

Consider `CCCC[C@H](NC(=O)[C@@H]1CCCN1C(=O)[C@@H]1CCCN1C(=O)[C@H](Cc1ccccc1)NC(=O)[C@H](Cc1c[nH]c2ccccc12)NC(=O)[C@H](C)NC(=O)[C@H](C)NC(=O)c1ccccc1)C(N)=O` (Bz-AAWFPP[Nle]-NH2), for which the Ki is 0.155 nM.

Take `CCCC[C@H](NC(=O)[C@@H]1CCCN1C(=O)[C@@H]1CCCN1C(=O)[C@H](Cc1ccccc1)NC(=O)[C@H](Cc1c[nH]c2ccccc12)NC(=O)[C@H](C)NC(=O)[C@H](C)Nc1ccc([N+](=O)[O-])c2nonc12)C(N)=O` (H-[X1]AWFPP[Nle]-NH2): affinity was put at a Ki of 87.1 nM.

The compound `CCCC[C@H](NC(=O)[C@@H]1CCCN1C(=O)[C@H]1CCCN1C(=O)[C@H](Cc1ccccc1)NC(=O)[C@@H](Cc1c[nH]c2ccccc12)NC(=O)[C@H](C)NC(=O)[C@H](CCCCNC(=S)Nc1ccc2c(c1)C(=O)OC21c2ccc(O)cc2Oc2cc(O)ccc21)NC(=O)c1ccccc1)C(N)=O` gave a Ki of 24.5 nM.

Consider `CCCC[C@H](NC(=O)[C@@H]1CCCN1C(=O)[C@H]1CCCN1C(=O)[C@H](Cc1ccccc1)NC(=O)[C@@H](Cc1c[nH]c2ccccc12)NC(=O)[C@H](C)NC(=O)[C@H](C)/N=C(/S)Nc1ccc2c(c1)C(=O)OC21c2ccc(O)cc2Oc2cc(O)ccc21)C(N)=O`, for which the “Log Ki” value (cho) is on record as -5.99.
